Measured values from patent US7989466B2, “Methods to inhibit or augment an inflammatory response” (Cambridge Enterprise Limited, priority 1999, dated 2011).
Read-outs that look alike come from different tables or passages of the source.

What was measured:
[1] = tested on: SDF-1α induced THP-1 migration; experiment: THP-1 trans-well migration assay, SDF-1α as chemoattractant; type: cell-based, human; details: for EC50: read-out: ED50 versus SDF-1α, inhibition of THP-1 migration
Experimental: (§1) To determine whether an agent inhibits a chemokine-induced activity, such as macrophage recruitment, varying amounts of the agent are mixed with cells in the presence of a known chemoattractant. For example, a range of known concentrations of an agent, e.g., a chemokine peptide, is incubated with a defined number (e.g., 10^4-10^6) of human THP-1 monocyte cells in individual wells of the top compartment of a trans-well plate. Chemokine (such as MCP-1, MIP1α, IL8 or SDF-1α), at a concentration known to cause significant migration of THP-1 cells in the trans-well migration assay, is placed in the lower compartment (FIG. 1). Cells are then incubated at 37° C. for a period sufficient to allow migration, e.g., 4 hours. After incubation, the cells are gently removed from the top of the filter with a pipette, 20 μl of 20 mM EDTA in simple PBS is added into each top well, and incubated for 20 minutes at 4° C. The filter is carefully flushed with media using a gentle flow, and removed. A standard curve consisting of a two-fold dilution series of THP-1 cells (in 29 μl) is prepared to accurately quantify the number of cells that have migrated. Migrated cells are stained with 3 μl of MTT stock dye solution which is added directly into each well (5 mg/ml in RPMI-1640 without phenol red, Sigma Chemical Co.) and incubated at 37° C. for 4 hours. The media is carefully aspirated from each well, and the converted dye is solubilized by 20 μl of DMSO. Absorbance of converted dye is measured at a wavelength of 595 nm using an ELISA plate reader. The number of migrated cells in each well is then determined by interpolation of the standard curve (see also Imai et al., J. Biol. Chem., 272, 15036 (1997)).
(§2) For this assay, THP-1 cells were maintained at a density of 4×10^5 cells per ml in RPMI-1640 supplemented with 10% fetal calf serum+20 μM 2-mercaptoethanol. Chemotaxis was induced in a 96-well disposable chemotaxis chamber fitted with a […] polycarbonate filter (PVP free, ChemoTX, Neuroprobe Inc., Cabin John). Twenty-nine μl of chemoattractant (recombinant human chemokine; 50 ng/ml, i.e., 5.9 nM) or control (100 ng/ml TGFβ) was added to the lower compartment of each well. The framed filter was aligned with the holes in the corner of the filter frame and placed over the wells. Five×10^4 THP-1 cells in 25 μl of RPMI-1640 were added to the upper compartment. Peptides were dissolved in Milli Q water and then serially diluted in culture medium. In most cases, the serially diluted peptides were added to the upper compartment of the chemotaxis chamber. The chamber was incubated at 37° C. in a humidified atmosphere of 5% CO2 for 4 hours.
(§3) After incubation, the cells were gently removed from the top of the filter with a pipette, 20 μl of 20 mM EDTA in PBS was added into each top well, and the mixture was incubated for 20 minutes at 4° C. The filter was then carefully flushed with media using a gentle flow, and removed. A standard curve was prepared to accurately quantify the number of THP-1 cells that had migrated. The curve was based on a two-fold dilution series of THP-1 cells (top standard 100,000 cells in 29 μl). Cells which had migrated, and in separate wells, the cells in the standards, were stained with 3 μl of MTT stock solution which was added directly into each well (5 mg/ml in RPMI 1640 without phenol red, Sigma Chemical Co.) and incubated at 37° C. for 4 hours. The media was carefully aspirated from each well, and the converted dye was solubilized by 20 μl of DMSO. Absorbance of converted dye was measured at a wavelength of 595 nm using an ELISA plate reader. The number of cells that had migrated in each well was determined by interpolation of the standard curve.

[2] = tested on: IL8 induced THP-1 migration; experiment: THP-1 trans-well migration assay, IL-8 as chemoattractant; type: cell-based, human; details: n.s. = no statistically significant inhibition (p > 0.05); for EC50: read-out: ED50 versus IL8, inhibition of THP-1 migration
Experimental: as §1, §2, §3

[3] = tested on: MCP-1 induced THP-1 migration; experiment: THP-1 trans-well migration assay, MCP-1 as chemoattractant; type: cell-based, human; details: agent with the cells in the upper compartment, n.s. = no statistically significant inhibition (p > 0.05); for EC50: read-out: ED50 versus MCP-1, inhibition of THP-1 migration
Experimental: as §1, §2, §3

[4] = tested on: chemokine-induced THP-1 migration; experiment: THP-1 trans-well migration assay, panel of chemokines (MCP-1, MIP1α, IL-8, SDF1α); type: cell-based, human; details: for CC SPECIFICITY: average inhibitory ED50 versus SDF1 and IL8 divided by average inhibitory ED50 versus MCP-1 and MIP1α; for Chemokine antagonist: active against at least one of IL-8, SDF-1α, MCP-1, MIP1α
[5] = tested on: MIP1α induced THP-1 migration; experiment: THP-1 trans-well migration assay, MIP1α as chemoattractant; type: cell-based, human; details: for EC50: n.s. = no statistically significant inhibition (p > 0.05), read-out: ED50 versus MIP1α, inhibition of THP-1 migration
Experimental: as §1, §2, §3

[6] = tested on: TGFβ1 induced THP-1 migration; experiment: THP-1 trans-well migration assay, TGFβ1 as non-chemokine control; type: cell-based, human; details: n.s. = no statistically significant inhibition (p > 0.05)
Experimental: Any method suitable for counting cells can be used, for example, counting with a hemocytometer, incubation of the cells with MTT (see above), or FACS analysis. A negative control assay is also performed, using TGF-β or another non-chemokine chemoattractant (e.g., IL1β or TNFα). To assess whether the agent is cytotoxic, the same concentrations of agent are incubated with THP-1 cells. Agents which 1) are not cytotoxic at levels which inhibit migration, 2) are ineffective at inhibiting the negative control-induced migration, and 3) reduce or inhibit chemokine-induced THP-1 migration, are agents which fall within the scope of the invention.
Chemotaxis was induced in a 96-well disposable chemotaxis chamber fitted with a […] polycarbonate filter (PVP free, ChemoTX, Neuroprobe Inc., Cabin John). […] The framed filter was aligned with the holes in the corner of the filter frame and placed over the wells. […] Peptides were dissolved in Milli Q water and then serially diluted in culture medium. In most cases, the serially diluted peptides were added to the upper compartment of the chemotaxis chamber. The chamber was incubated at 37° C. in a humidified atmosphere of 5% CO2 for 4 hours.
After incubation, the cells were gently removed from the top of the filter with a pipette, 20 μl of 20 mM EDTA in PBS was added into each top well, and the mixture was incubated for 20 minutes at 4° C. The filter was then carefully flushed with media using a gentle flow, and removed. […] The curve was based on a two-fold dilution series of THP-1 cells (top standard 100,000 cells in 29 μl). […] The media was carefully aspirated from each well, and the converted dye was solubilized by 20 μl of DMSO.

[7] = target: T1, Duffy Antigen Receptor for Chemokines (DARC) (Homo sapiens, UniProt Q16570); experiment: DARC binding: competition with 125I-MCP-1 on red blood cells
T1 sequence (Q16570 1-336): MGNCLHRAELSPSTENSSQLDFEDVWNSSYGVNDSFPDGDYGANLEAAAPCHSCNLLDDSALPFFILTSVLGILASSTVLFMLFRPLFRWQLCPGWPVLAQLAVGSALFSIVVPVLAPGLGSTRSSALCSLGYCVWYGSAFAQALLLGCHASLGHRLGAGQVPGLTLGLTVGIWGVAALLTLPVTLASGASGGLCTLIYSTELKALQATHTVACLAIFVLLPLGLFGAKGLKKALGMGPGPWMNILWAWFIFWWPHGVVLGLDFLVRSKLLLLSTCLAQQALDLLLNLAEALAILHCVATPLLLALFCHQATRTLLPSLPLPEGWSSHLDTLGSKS

[8] = target: T2, Recombinant human latent TGF-β1 (Homo sapiens, UniProt P01137); experiment: Latent TGF-β1 activation ELISA (R2X capture); type: biochemical; parameters: key: −: A minus indicates no detectable activity in the assay; +: The number of pluses is a qualitative indicating of the activity of each peptide in each assay; ++: The number of pluses is a qualitative indicating of the activity of each peptide in each assay; +++: The number of pluses is a qualitative indicating of the activity of each peptide in each assay; ++++: The number of pluses is a qualitative indicating of the activity of each peptide in each assay; +++++: The number of pluses is a qualitative indicating of the activity of each peptide in each assay; details: test peptide at 100 nM, 37° C., 90 minutes
T2 construct: purchased R&D Systems; host or cells: CHO cells
T2 sequence (P01137 30-278 limits assumed): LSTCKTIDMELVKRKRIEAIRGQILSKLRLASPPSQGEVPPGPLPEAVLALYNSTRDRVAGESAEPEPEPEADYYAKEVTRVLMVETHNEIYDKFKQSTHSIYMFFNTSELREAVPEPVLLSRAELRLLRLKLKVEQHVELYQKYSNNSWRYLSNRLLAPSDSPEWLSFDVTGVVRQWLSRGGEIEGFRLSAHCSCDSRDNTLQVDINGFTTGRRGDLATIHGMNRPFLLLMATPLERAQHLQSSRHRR
Experimental: To test whether a KXK tripeptide activates TGF-beta, a direct ELISA-type assay can be used. Recombinant human latent TGF-β1 produced in CHO cells (R&D Systems) was incubated with the test activator. For example, 200 ng of latent TGF-β1 (at 20 μg/ml) was incubated with test peptide at 100 nM final concentration at 37° C. for 90 minutes. Following incubation, the TGF-β is incubated with the recombinant extracellular domain of the Type II TGF-β receptor (R2X) which binds only the active and not the latent forms of TGF-β1 (Clin. Chim. Acta, 235, 11 (1995)). For example, 1 μg of purified R2X is coated onto a Maxisorp ELISA plate well in 50 μl of 100 mM sodium carbonate for 2 hours at 4° C., and non-specific protein binding then blocked incubation with 5% sucrose 5% Tween-20 in Tris-buffered saline for 1 hour at room temperature.
The TGF-β sample is then incubated with the coated and blocked wells for 2 hours at room temperature with shaking. Wells are washed 3 times quickly with Tris-buffered saline containing 0.05% Tween-20 between each incubation. If any of the latent TGF-β1 has been activated by the incubation with test peptide, it is captured by the R2X, while remaining latent TGF-β1 is washed away. Captured active TGF-β1 is then detected by incubation with a suitable detection agent, such as a peroxidase conjugated polyclonal anti-TGF-beta antibody. For example, the wells are incubated with 200 μl of BDA19 chicken anti-TGF-β1 antibody coupled to horseradish peroxidase for 90 minutes at room temperature with shaking. Any bound peroxidase is then detected using a suitable chromogenic substrate (e.g., K-BLUE TMB substrate solution). The amount of active TGF-β generated is estimated by interpolation of a standard curve constructed using known amounts of active TGF-β1 (R&D Systems).

[9] = n.s. = no statistically significant inhibition (p > 0.05)
[10] = average inhibitory ED50 for inhibition of THP-1 migration induced by each of the chemokines, read-out: AVERAGE ED50
[11] = tripeptide at 100 μM, mean ± range, dash = no statistically significant reduction in migration
[12] = footnote f, KQK MCP-1, SEE MIP1α, KLK SDF1, KEN IL8, read-out: ED50 of a tripeptide against the one chemokine it is highly specific for

| Substance | EC50 [5] | TGF-beta Activator [8] | ED50 versus TGFβ1, inhibition of THP-1 migration [6] | Chemokine antagonist [4] | other results |
| --- | --- | --- | --- | --- | --- |
| EICLDPKQKWIQ [Leu4Ile11peptide 3] | 1 µM |  | n.s. |  | EC50 [1, 9]: 3 µM; EC50 [2]: 3000 nM; EC50 ([3]; listed as Leu4Ile11peptide 3(1-12)[MCP-1]): ~1 µM; EC50 [3]: 2 µM; more potent as an inhibitor of CC chemokines than peptide 3(1-12)[MCP-1] [4]: approximately 5 fold; EC50 ([4]; average inhibitory ED50 for inhibition of THP-1 migration induced by each of the chemokines, listed as Leu4Ile11peptide 3(1-12)[MCP-1], read-out: AVERAGE ED50): 2.3 µM; CC SPECIFICITY [4]: 2.0; selectivity for receptors on THP-1 cells over DARC [7]: at least 20 fold |
| EICLDPKQKWVQ [Leu4peptide 3] | 7 µM |  | n.s. |  | EC50 [1, 9]: 3 µM; EC50 [2]: 3000 nM; EC50 [3]: 8 µM; increase in potency as an inhibitor of CXC chemokines compared with peptide 3(1-12)[MCP-1] [4]: approximately 4 fold; EC50 [4, 10]: 5 µM |
| KFK |  | ++++ |  | − |  |
| KGK |  | − |  | − |  |
| KKK |  | − |  | ++++ |  |
| KQKWVQ [Peptide 3[7-12]] | 5 µM |  | n.s. |  | EC50 [1, 9]: 6 µM; EC50 [2]: 6000 nM; EC50 [3]: 7 µM; EC50 ([4]; THP-1 migration, read-out: ED50 range, migration by all chemokines tested): 7 to 9 µM |
| KSK |  | − |  | − |  |
| KTK |  | − |  | − |  |
| KWK |  | − |  | − |  |
| SEE | 6 µM |  | n.s. |  | ED50 versus SDF-1α, inhibition of THP-1 migration [1, 9]: n.s.; ED50 versus IL8, inhibition of THP-1 migration [2]: n.s.; ED50 versus MCP-1, inhibition of THP-1 migration [3]: n.s.; specificity for the cognate chemokine over all the other chemokines tested ([4]; KQK MCP-1, SEE MIP1-α): > 100 fold; CC SPECIFICITY [4]: >100; EC50 [4, 12]: 0.8 µM; percentage inhibition of migration induced by MIP1α [5, 11]: 65 ± 3% |

Second part, led by results:

| EC50 [5] | TGF-beta Activator [8] | Substance | ED50 versus TGFβ1, inhibition of THP-1 migration [6] | Chemokine antagonist [4] | other results |
| --- | --- | --- | --- | --- | --- |
| 6 µM |  | EICADPSQKWVQ [Ser7peptide 3] | n.s. |  | EC50 [1, 9]: 4 µM; EC50 [2]: 3000 nM; EC50 [3]: 7 µM; EC50 [4, 10]: 5 µM; CC SPECIFICITY [4]: 0.5 |
|  | − | KDK |  | + |  |
|  | − | KEK |  | + |  |
|  | ++ | KIK |  | ++ |  |
|  | +++ | KLK |  | ++++ | percentage inhibition of migration induced by SDF1α [1, 11]: 87 ± 6%; CC SPECIFICITY [4]: <0.1; EC50 [4, 12]: 0.1 to 10 µM |
|  | +++++ | KYK |  | − |  |
